In patent US9889099B2, “Method and composition for enhancing milk production” (LAND O'LAKES, INC., priority 1999, dated 2018):
Marks after values point to notes of the source that are not given here.

Columns and labels:
lactating cows = experiment: Example 2: 3x3 Latin square feeding of lactating cows, control ration plus about 50 or 100 g sorbitol per day; assay type: in vivo, Holstein cows; settings: for Milk Protein / Lactose / Total Solids / Dry Matter Intake / Milk Production: last 14 of 28 days
Text: In this example, fifteen Holstein cows (nine multiparous and six primiparous) averaging about sixty-five days in milk each, and thus in early lactation, were arranged in a 3×3 Latin square design, also known as the switch back design, that was replicated five times. Each cow was randomly allotted to the control ration treatment, to the first test ration treatment, or to the second test ration treatment. In the 3×3 Latin square design, each cow is cycled through each treatment, namely, the control ration treatment, the first test ration treatment, and the second test ration treatment. This permits each cow to act as a control for standardizing the testing differences observed between each treatment for each cow. Sufficient time between feeding treatments (between the control ration treatment, the first ration test treatment, and the second test ration treatment) was allowed to permit normalization of each cow before being switched to a different treatment. The cows were blocked by parity milk production, based upon the level of milk production by individual cows, after being in milk for forty-five days. After being blocked by parity milk production, the cows were randomly allotted to the control ration feeding, the first test ration feeding, or the second test ration feeding. The components of the control ration used in this example are shown in Table 5: The control ration was placed in the feeding troughs of the cattle once daily in the morning. When the first test ration was to be provided to the test cattle, sorbitol was top dressed and lightly mixed into the control ration in the feeding trough of each cow being supplied with the first test ration dosage of about 50 grams of sorbitol per cow per day, about one hour after the control ration was placed in the feeding trough. When the second test ration was to be provided to the test cattle, sorbitol was top dressed and lightly mixed into the control ration in the feeding trough of each cow being supplied with the second test ration dosage of about 100 grams of sorbitol per cow per day, about one hour after the control ration was placed in the feeding trough. Then, the control ration, the first test ration, and the second test ration were lightly mixed in front of the cows six times per day to encourage additional feed ingestion by the cattle. Leftover rations from the previous days feeding were collected and weighed from each feeding trough prior to feeding the test cattle the next day. The cows received a sufficient amount of the control ration to ensure that at least about ten weight percent, based upon the amount of control ration provided at the beginning of each day, remained per day for each test cow. The amount of sorbitol that was top dressed in the control ration to form the first test ration was adjusted upward to account for the excess of control ration provided to ensure that the cows ingested the first test ration dosage of about 50 grams of sorbitol per cow per day. Likewise, the amount of sorbitol that was top dressed in the control ration to form the second test ration was adjusted upward to account for the excess of control ration provided to ensure that the cows ingested the second test ration dosage of about 100 grams of sorbitol per cow per day. Feed refusals were measured daily, and water was supplied ad libitum. Each test cow received routine care and management consistent with appropriate recommendations in the Guide for the Care and Use of Agricultural Animals in Agricultural Research and Teaching (1st edition, March 1988). Each cow was milked three times daily and the weight of produced milk was recorded at each milking. The milk was sampled once per day (⅓ of the sample volume from each milking) and was analyzed for protein, fat, lactose, and total solids, in accordance with the property determination and characterization techniques presented above. […]

[1] = Passage of orally fed sorbitol through the rumen into the abomasum; assay type: in vivo, ruminant; settings: within about six to about eight hours after entering the rumen; based on total amount orally fed

Structure (SMILES): OC[C@@H](O)[C@@H](O)[C@H](O)[C@@H](O)CO [sorbitol]
- Milk Protein (lactating cows; about 50 g sorbitol/day/cow, Block 1, control 2.23, P >0.10): 2.22 pounds/day/cow
- Lactose (lactating cows; about 50 g sorbitol/day/cow, Block 1, control 3.99, P >0.10): 4.10 pounds/day/cow
- Total Solids (lactating cows; about 50 g sorbitol/day/cow, Block 1, control 9.51, P >0.10): 9.77 pounds/day/cow
- Dry Matter Intake (lactating cows; about 50 g sorbitol/day/cow, Block 1, control 45.0, P >0.10): 44.2 pounds/day/cow
- Milk Protein (lactating cows; about 50 g sorbitol/day/cow, Block 2, control 2.13, P >0.10): 2.18 pounds/day/cow
- Lactose (lactating cows; about 50 g sorbitol/day/cow, Block 2, control 3.72, P 0.07): 3.89^b pounds/day/cow
- Total Solids (lactating cows; about 50 g sorbitol/day/cow, Block 2, control 8.95, P >0.10): 9.48 pounds/day/cow
- Dry Matter Intake (lactating cows; about 50 g sorbitol/day/cow, Block 2, control 42.9, P 0.04): 45.3^b pounds/day/cow
- Milk Production (lactating cows; about 50 g sorbitol/day/cow, Block 2, control 75.3, P 0.10): 78.0^b pounds/day/cow
- Milk Protein (lactating cows; about 50 g sorbitol/day/cow, Block 3, control 2.62, P >0.10): 2.89 pounds/day/cow
- Lactose (lactating cows; about 50 g sorbitol/day/cow, Block 3, control 4.32, P >0.10): 4.84 pounds/day/cow
- Total Solids (lactating cows; about 50 g sorbitol/day/cow, Block 3, control 10.70, P >0.10): 11.53 pounds/day/cow
- Dry Matter Intake (lactating cows; about 50 g sorbitol/day/cow, Block 3, control 54.4, P 0.10): 60.7^b pounds/day/cow
- Milk Production (lactating cows; about 50 g sorbitol/day/cow, Block 3, control 89.0, P 0.28): 98.8 pounds/day/cow
- Milk Protein (lactating cows; about 50 g sorbitol/day/cow, Block 4, control 2.83, P 0.08): 3.18^b pounds/day/cow
- Lactose (lactating cows; about 50 g sorbitol/day/cow, Block 4, control 4.56, P 0.06): 4.88^b pounds/day/cow
- Total Solids (lactating cows; about 50 g sorbitol/day/cow, Block 4, control 11.46, P 0.09): 12.35^b pounds/day/cow
- Dry Matter Intake (lactating cows; about 50 g sorbitol/day/cow, Block 4, control 61.0, P >0.10): 62.6 pounds/day/cow
- Milk Production (lactating cows; about 50 g sorbitol/day/cow, Block 4, control 97.6, P 0.07): 102.9^b pounds/day/cow
- Milk Protein (lactating cows; about 50 g sorbitol/day/cow, Block 5, control 3.35, P >0.10): 3.39 pounds/day/cow
- Lactose (lactating cows; about 50 g sorbitol/day/cow, Block 5, control 5.70, P 0.05): 5.86^b pounds/day/cow
- Total Solids (lactating cows; about 50 g sorbitol/day/cow, Block 5, control 13.46, P >0.10): 13.83 pounds/day/cow
- Dry Matter Intake (lactating cows; about 50 g sorbitol/day/cow, Block 5, control 65.1, P >0.10): 66.6 pounds/day/cow
- Milk Production (lactating cows; about 50 g sorbitol/day/cow, Block 5, control 119.1, P 0.10): 122.4^b pounds/day/cow
- Milk Protein (lactating cows; about 50 g sorbitol/day/cow, all cows, control 2.63, P >0.10): 2.77 pounds/day/cow
- Lactose (lactating cows; about 50 g sorbitol/day/cow, all cows, control 4.46, P 0.04): 4.71^b pounds/day/cow
- Total Solids (lactating cows; about 50 g sorbitol/day/cow, all cows, control 10.82, P 0.07): 11.39^b pounds/day/cow
- Dry Matter Intake (lactating cows; about 50 g sorbitol/day/cow, all cows, control 53.7, P 0.05): 55.9^b pounds/day/cow
- Milk Production (lactating cows; about 50 g sorbitol/day/cow, all cows, control 92.9, P 0.05): 97.5^b pounds/day/cow
- Milk Protein (lactating cows; about 50 g sorbitol/day/cow, multiparous cows only, control 2.93, P 0.08): 3.15^b pounds/day/cow
- Lactose (lactating cows; about 50 g sorbitol/day/cow, multiparous cows only, control 4.86, P 0.07): 5.19^b pounds/day/cow
- Total Solids (lactating cows; about 50 g sorbitol/day/cow, multiparous cows only, control 11.87, P >0.10): 12.57 pounds/day/cow
- Dry Matter Intake (lactating cows; about 50 g sorbitol/day/cow, multiparous cows only, control 60.2, P 0.09): 63.3^b pounds/day/cow
- Milk Production (lactating cows; about 50 g sorbitol/day/cow, multiparous cows only, control 101.9, P 0.07): 108.0^b pounds/day/cow
- Milk Protein (lactating cows; about 50 g sorbitol/day/cow, primiparous cows only, control 2.18, P >0.10): 2.20 pounds/day/cow
- Lactose (lactating cows; about 50 g sorbitol/day/cow, primiparous cows only, control 3.85, P >0.10): 3.99 pounds/day/cow
- Total Solids (lactating cows; about 50 g sorbitol/day/cow, primiparous cows only, control 9.23, P >0.10): 9.63 pounds/day/cow
- Dry Matter Intake (lactating cows; about 50 g sorbitol/day/cow, primiparous cows only, control 44.0, P >0.10): 44.7 pounds/day/cow
- Milk Production (lactating cows; about 50 g sorbitol/day/cow, primiparous cows only, control 79.5, P >0.10): 81.8 pounds/day/cow
- Milk Protein (lactating cows; about 100 g sorbitol/day/cow, Block 1, control 2.23, P >0.10): 2.19 pounds/day/cow
- Lactose (lactating cows; about 100 g sorbitol/day/cow, Block 1, control 3.99, P >0.10): 4.07 pounds/day/cow
- Total Solids (lactating cows; about 100 g sorbitol/day/cow, Block 1, control 9.51, P >0.10): 9.94 pounds/day/cow
- Dry Matter Intake (lactating cows; about 100 g sorbitol/day/cow, Block 1, control 45.0, P >0.10): 44.4 pounds/day/cow
- Milk Production (lactating cows; about 100 g sorbitol/day/cow, Block 1, control 83.7, P >0.10): 85.2 pounds/day/cow
- Milk Protein (lactating cows; about 100 g sorbitol/day/cow, Block 2, control 2.13, P >0.10): 2.12 pounds/day/cow
- Lactose (lactating cows; about 100 g sorbitol/day/cow, Block 2, control 3.72, P 0.07): 3.82^ab pounds/day/cow
- Total Solids (lactating cows; about 100 g sorbitol/day/cow, Block 2, control 8.95, P >0.10): 9.29 pounds/day/cow
- Dry Matter Intake (lactating cows; about 100 g sorbitol/day/cow, Block 2, control 42.9, P 0.04): 42.6^ab pounds/day/cow
- Milk Production (lactating cows; about 100 g sorbitol/day/cow, Block 2, control 75.3, P 0.10): 77.1^ab pounds/day/cow
- Milk Protein (lactating cows; about 100 g sorbitol/day/cow, Block 3, control 2.62, P >0.10): 2.85 pounds/day/cow
- Lactose (lactating cows; about 100 g sorbitol/day/cow, Block 3, control 4.32, P >0.10): 4.86 pounds/day/cow
- Total Solids (lactating cows; about 100 g sorbitol/day/cow, Block 3, control 10.70, P >0.10): 11.62 pounds/day/cow
- Dry Matter Intake (lactating cows; about 100 g sorbitol/day/cow, Block 3, control 54.4, P 0.10): 60.1^ab pounds/day/cow
- Milk Production (lactating cows; about 100 g sorbitol/day/cow, Block 3, control 89.0, P 0.28): 99.0 pounds/day/cow
- Milk Protein (lactating cows; about 100 g sorbitol/day/cow, Block 4, control 2.83, P 0.08): 3.01^ab pounds/day/cow
- Lactose (lactating cows; about 100 g sorbitol/day/cow, Block 4, control 4.56, P 0.06): 4.57^ab pounds/day/cow
- Total Solids (lactating cows; about 100 g sorbitol/day/cow, Block 4, control 11.46, P 0.09): 11.01^ab pounds/day/cow
- Dry Matter Intake (lactating cows; about 100 g sorbitol/day/cow, Block 4, control 61.0, P >0.10): 61.2 pounds/day/cow
- Milk Production (lactating cows; about 100 g sorbitol/day/cow, Block 4, control 97.6, P 0.07): 95.9^ab pounds/day/cow
- Milk Protein (lactating cows; about 100 g sorbitol/day/cow, Block 5, control 3.35, P >0.10): 3.36 pounds/day/cow
- Lactose (lactating cows; about 100 g sorbitol/day/cow, Block 5, control 5.70, P 0.05): 5.78^ab pounds/day/cow
- Total Solids (lactating cows; about 100 g sorbitol/day/cow, Block 5, control 13.46, P >0.10): 13.78 pounds/day/cow
- Dry Matter Intake (lactating cows; about 100 g sorbitol/day/cow, Block 5, control 65.1, P >0.10): 65.8 pounds/day/cow
- Milk Production (lactating cows; about 100 g sorbitol/day/cow, Block 5, control 119.1, P 0.10): 121.0^ab pounds/day/cow
- Milk Protein (lactating cows; about 100 g sorbitol/day/cow, all cows, control 2.63, P >0.10): 2.71 pounds/day/cow
- Lactose (lactating cows; about 100 g sorbitol/day/cow, all cows, control 4.46, P 0.04): 4.62^ab pounds/day/cow
- Total Solids (lactating cows; about 100 g sorbitol/day/cow, all cows, control 10.82, P 0.07): 11.12^ab pounds/day/cow
- Dry Matter Intake (lactating cows; about 100 g sorbitol/day/cow, all cows, control 53.7, P 0.05): 54.8^ab pounds/day/cow
- Milk Production (lactating cows; about 100 g sorbitol/day/cow, all cows, control 92.9, P 0.05): 95.6^ab pounds/day/cow
- Milk Protein (lactating cows; about 100 g sorbitol/day/cow, multiparous cows only, control 2.93, P 0.08): 3.07^ab pounds/day/cow
- Lactose (lactating cows; about 100 g sorbitol/day/cow, multiparous cows only, control 4.86, P 0.07): 5.07^ab pounds/day/cow
- Total Solids (lactating cows; about 100 g sorbitol/day/cow, multiparous cows only, control 11.87, P >0.10): 12.13 pounds/day/cow
- Dry Matter Intake (lactating cows; about 100 g sorbitol/day/cow, multiparous cows only, control 60.2, P 0.09): 62.3^ab pounds/day/cow
- Milk Production (lactating cows; about 100 g sorbitol/day/cow, multiparous cows only, control 101.9, P 0.07): 105.3^ab pounds/day/cow
- Milk Protein (lactating cows; about 100 g sorbitol/day/cow, primiparous cows only, control 2.18, P >0.10): 2.16 pounds/day/cow
- Lactose (lactating cows; about 100 g sorbitol/day/cow, primiparous cows only, control 3.85, P >0.10): 3.95 pounds/day/cow
- Total Solids (lactating cows; about 100 g sorbitol/day/cow, primiparous cows only, control 9.23, P >0.10): 9.62 pounds/day/cow
- Dry Matter Intake (lactating cows; about 100 g sorbitol/day/cow, primiparous cows only, control 44.0, P >0.10): 43.5 pounds/day/cow
- Milk Production (lactating cows; about 100 g sorbitol/day/cow, primiparous cows only, control 79.5, P >0.10): 81.2 pounds/day/cow
- improvement of milk production rate versus cows fed only the control ration (lactating cows; first test ration, about 50 g sorbitol per day, all cows): 4.6 pounds per day per cow
- improvement of milk production rate versus cows fed only the control ration (lactating cows; second test ration, about 100 g sorbitol per day, all cows): 2.7 pounds per day per cow
- share of orally fed sugar alcohol passing through the rumen into the abomasum [1]: at least 50 weight percent
